Tested on: d(ATGCAT)2 (DNA, duplex) ATGCAT
Test: melting temperature
Conditions: derived from two Tm (~30 free, ~45 complex); reviewed from authors' ref 23

dTm: ~ 15 °C
Compound: Cc1cccc2nc3cccc(C(=O)NCCNCCNCCNC(=O)c4cccc5nc6cccc(C)c6nc45)c3nc12
